Reference: ChEMBL document CHEMBL4028858, “Structural Biology-Inspired Discovery of Novel KRAS-PDEδ Inhibitors” (J Med Chem, 2017)
Converted amounts (≈) assume the structure as drawn. The source made the active and inactive calls. The calls are words filed in the database; no cut-off is given here.

How the values were obtained:
[1] = Aqueous solubility of the compound at 5 mg/ml measured after 24 hrs by HPLC method; type: physicochemical; details: water (aqueous)
[2] = target: T1, Retinal rod rhodopsin-sensitive cGMP 3',5'-cyclic phosphodiesterase subunit delta (Homo sapiens, UniProt O43924); details: 10 uM
T1 sequence (O43924 whole entry): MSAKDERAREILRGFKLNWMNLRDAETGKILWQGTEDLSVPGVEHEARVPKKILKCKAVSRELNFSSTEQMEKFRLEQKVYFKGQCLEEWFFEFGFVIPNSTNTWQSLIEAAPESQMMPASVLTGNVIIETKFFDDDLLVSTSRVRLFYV
Description: Inhibition of PDEdelta in KRAS-dependent human Capan1 cells assessed as increase in endogenous RAS distribution to endomembranes at 10 uM incubated for 2 hrs by immunofluorescence staining based method

CAPAN-1 [3] = test: Downregulation of PDEdelta protein expression in KRAS-dependent human Capan1 cells at 10 uM incubated for 2 hrs by immunofluorescence staining-based method; type: functional, cell-based
CAPAN-1 [4] = test: Induction of apoptosis in KRAS-dependent human Capan1 cells incubated for 48 hrs by Annexin-V FITC/propidium iodide staining-based flow cytometry; type: functional, cell-based
[5] = target: T1, Retinal rod rhodopsin-sensitive cGMP 3',5'-cyclic phosphodiesterase subunit delta; details: 10 uM; remark: listed apart in the source
Description: Inhibition of PDEdelta in KRAS-dependent human Capan1 cells assessed as downregulation of EGF-induced AKT phosphorylation at Ser473 at 10 uM incubated for >5 hrs by Western blot method

[6] = target: T1, Retinal rod rhodopsin-sensitive cGMP 3',5'-cyclic phosphodiesterase subunit delta; details: 10 uM; remark: listed apart in the source
Description: Inhibition of PDEdelta in KRAS-dependent human Capan1 cells assessed as downregulation of EGF-induced ERK phosphorylation at Thr202/Thr204 at 10 uM incubated for >5 hrs by Western blot method

[7] = target: T1, Retinal rod rhodopsin-sensitive cGMP 3',5'-cyclic phosphodiesterase subunit delta; details: 1 mM
Description: Binding affinity to PDEdelta (unknown origin) assessed as change in melting temperature at 1 mM by circular dichroism spectroscopy

CAPAN-1 [8] = test: Induction of apoptosis in KRAS-dependent human Capan1 cells at 25 uM incubated for 48 hrs by Annexin-V FITC/propidium iodide staining-based flow cytometry relative to control; type: functional
CAPAN-1 [9] = test: Induction of apoptosis in KRAS-dependent human Capan1 cells at 50 uM incubated for 48 hrs by Annexin-V FITC/propidium iodide staining-based flow cytometry relative to control; type: functional
CAPAN-1 [10] = test: Downregulation of PDEdelta protein expression in KRAS-dependent human Capan1 cells at 25 uM incubated for 2 hrs by immunofluorescence staining-based method; type: functional, cell-based
[11] = target: T1, Retinal rod rhodopsin-sensitive cGMP 3',5'-cyclic phosphodiesterase subunit delta
Description: Inhibition of Atrovastatin-PEG3-FITC binding to PDEdelta (unknown origin) incubated for 60 mins by fluorescence anisotropy assay

CAPAN-1 [12] = test: Antiproliferative activity against KRAS-dependent human Capan1 cells after 48 hrs by CCK8 assay
CAPAN-1 [13] = test: Induction of apoptosis in KRAS-dependent human Capan1 cells at 10 uM incubated for 48 hrs by Annexin-V FITC/propidium iodide staining-based flow cytometry relative to control; type: functional
[14] = target: RAC-alpha serine/threonine-protein kinase (Homo sapiens) (UniProt P31749); test: […] of EGF-induced AKT phosphorylation at Ser473 in human Capan1 cells at 25 uM after 1 hr by Western blot method; type: cell-based
RAC-alpha serine/threonine-protein kinase (Homo sapiens), sequence (P31749 whole entry): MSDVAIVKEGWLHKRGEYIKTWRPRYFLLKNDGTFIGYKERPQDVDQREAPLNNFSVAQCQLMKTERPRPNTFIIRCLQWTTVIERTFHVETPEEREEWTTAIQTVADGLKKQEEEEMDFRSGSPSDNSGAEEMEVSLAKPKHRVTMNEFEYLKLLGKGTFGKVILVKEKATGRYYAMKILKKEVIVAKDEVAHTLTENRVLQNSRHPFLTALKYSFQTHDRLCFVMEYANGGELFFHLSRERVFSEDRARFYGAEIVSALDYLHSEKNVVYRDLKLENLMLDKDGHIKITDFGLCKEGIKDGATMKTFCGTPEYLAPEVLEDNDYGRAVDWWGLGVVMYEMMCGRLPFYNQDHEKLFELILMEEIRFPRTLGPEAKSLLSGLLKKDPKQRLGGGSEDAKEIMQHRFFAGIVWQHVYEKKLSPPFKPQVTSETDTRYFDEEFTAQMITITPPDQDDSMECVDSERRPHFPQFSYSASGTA

Homo sapiens = species on record: Homo sapiens; test: Effect on EGF-induced ERK phosphorylation at Thr202/Tyr204 in human Capan1 cells at 25 uM after 1 hr by Western blot method
CAPAN-1 [15] = test: Potency index, ratio of deltazinone IC50 to test compound IC50 for KRAS-dependent human Capan1 cells; type: functional
CAPAN-1 [16] = test: Antiproliferative activity against KRAS-dependent human Capan1 cells at 100 uM after 48 hrs by CCK8 assay relative to control; type: functional

O=C1c2ccccc2NC(c2ccccc2F)N1CCCCCCN1C(=O)c2ccccc2NC1c1ccccc1F (stereo not given)
solubility at 24 h [1]: 14 µM (≈ 7.93 µg/mL)

Cc1ccc(-n2nc3c(=O)n(CCC(=O)N4CCC(N5C(=O)c6ccccc6NC5c5ccccc5F)CC4)nc(C)c3c2C)cc1 (stereo in doubt; 3b) [listing 1 of 2 here]
inhibition [2]: Active | Activity (CAPAN-1 [3]): Active | Activity (CAPAN-1 [4]): Dose-dependent effect | inhibition [5]: Active | inhibition [6]: Active

O=C1c2ccccc2NC(c2ccccc2F)N1c1ccccc1 (racemic)
ΔTm [7]: 12.7 °C

O=C1c2ccccc2N[C@@H](c2ccccc2F)N1CCN1CCC(N2C(=O)c3ccccc3N[C@H]2c2ccccc2F)CC1
Activity (CAPAN-1 [8]): 23.6% | Activity (CAPAN-1 [9]): 39.3% | Activity (CAPAN-1 [10]): Active

O=C1c2ccccc2NC(c2ccccc2F)N1CCCCCCCN1C(=O)c2ccccc2NC1c1ccccc1F (stereo not given)
solubility at 24 h [1]: 30.9 µM (≈ 17.9 µg/mL)

Cc1ccc(-n2nc3c(=O)n(CCC(=O)N4CCC(N5C(=O)c6ccccc6NC5c5ccccc5F)CC4)nc(C)c3c2C)cc1 (stereo in doubt; 3b) [listing 2 of 2 here]
Activity (CAPAN-1 [8]): 50% | Kd [11]: 0.002 µM | IC50 (CAPAN-1 [12]; capan-1): 18.6 µM | solubility at 24 h [1]: 268 µM (≈ 170 µg/mL)

Cc1ccc(-n2nc3c(=O)n(CCCC(=O)NCC(C)c4ccccc4)nc(C)c3c2C)cc1 (stereo not given)
Activity (CAPAN-1 [13]): 10% | IC50 (CAPAN-1 [12]; Homo sapiens, CAPAN-1, 48 h): 56.9 µM | Activity [14]: Active | Activity (Homo sapiens): inactive

Cc1ccc(-n2nc3c(=O)n(CCC(=O)N4CCC(N5C(=O)c6ccccc6NC5c5ccccc5F)CC4)nc(C)c3c2C)cc1 (stereo in doubt; (+)-3b)
Kd [11]: 0.0006 µM | IC50 (CAPAN-1 [12]; capan-1): 12.4 µM | Ratio IC50 (CAPAN-1 [15]): 4

O=C1c2ccccc2NC(c2ccccc2F)N1CCCCCN1C(=O)c2ccccc2NC1c1ccccc1F (stereo not given)
solubility at 24 h [1]: 8.9 µM (≈ 4.92 µg/mL)

Cc1ccc(-n2nc3c(=O)n(CCC(=O)N4CCC(N5C(=O)c6ccccc6NC5c5ccccc5F)CC4)nc(C)c3c2C)cc1 (single isomer, unassigned; (-))
Kd [11]: 0.037 µM | IC50 (CAPAN-1 [12]; capan-1): 25.6 µM

O=C1c2ccccc2NC(c2ccccc2F)N1CCOc1ccc(N2C(=O)c3ccccc3NC2c2ccccc2F)cc1 (stereo not given)
solubility at 24 h [1]: 3.2 µM (≈ 1.93 µg/mL)

O=C1c2ccccc2NC(c2ccccc2F)N1CCN1CCC(N2C(=O)c3ccccc3NC2c2ccccc2F)CC1 (stereo not given)
solubility at 24 h [1]: 70.6 µM (≈ 41.9 µg/mL) | Activity (CAPAN-1 [16]): 48.9%

O=C1c2ccccc2N[C@@H](c2ccccc2F)N1c1ccccc1
ΔTm [7]: 14 °C

Cc1ccc(-n2nc3c(=O)n(CCCN4CCC(N5C(=O)c6ccccc6NC5c5ccccc5F)CC4)nc(C)c3c2C)cc1 (stereo not given)
Activity (CAPAN-1 [8]): 50% | IC50 (CAPAN-1 [12]; Homo sapiens, CAPAN-1, 48 h): 27.6 µM | Activity (CAPAN-1 [4]): Dose-dependent effect | solubility at 24 h [1]: 403 µM (≈ 250 µg/mL)

O=C1c2cccc3cccc(c23)N1c1ccc(-c2ccccc2)cc1
solubility at 24 h [1]: 0.37 µM (≈ 0.119 µg/mL)

O=C1c2ccccc2N[C@H](c2ccccc2F)N1c1ccccc1
ΔTm [7]: 5.75 °C
